Laboratory results reported in patent publication US20060003893A1, “Controlled release fertilizers employing ureaform compounds and processes for making same” (priority 2004, published 2006).

Assay: Controlled Release Soil Test (irrigated soil burial test)
Assay type: physicochemical
Text: To measure the relative solubilities of the products in soil, an irrigated soil burial test (“Controlled Release Soil Test”) was devised such that granules could be retrieved for measurement of their nitrogen content. The following is a description of the test.
Controlled Release Soil Test
Procedure for Controlled Release Soil Test
• 1. Screen the sample to obtain −6+7 Tyler mesh granules for the test. • 2. Label a freezer container with the test description. • 3. Place the freezer container on the 1200 g balance and tare out. • 4. Place 300 g of potting soil with a 40% moisture content into the container and record the weight. • 5. Over the soil place two (2) pieces of fiberglass mesh with 14 meshes to the inch and 1/16 inch openings. • 6. Tare out the container with the soil and fiberglass mesh screens. • 7. Spread 5 grams of −6+7 Tyler mesh granules over the screen in a single layer and record the weight. • 8. Place a large square of fiberglass mesh over the granules, with a stainless steel screen cut to fit over it, so that the shape of the container has been mirrored. • 9. Once this is shaped, tare out the container and add 150 g of soil and record the weight. • 10. Repeat this process for each sample to be tested (in triplet if possible). • 11. After all containers are completed, fill a mist spray bottle with de-ionized water and prime. • 12. […]

NC(N)=O [UREA, urea]
time to go into solution: ≤ 9 h | Nitrogen Retained (%) 9 Hours (9 hours): 0%
